Measurements: patent US8628961B2, “Small molecule antagonists of phosphatidylinositol-3,4,5-triphosphate (PIP3) and uses thereof” (Tufts University, priority 2010, dated 2014)

Key:
[1] = tested on: SUM159 cells transfected with VAV2 or WAVE2; assay: Lamellipodia formation and membrane translocation in VAV/WAVE-transfected cells; assay type: cell-based, human; conditions: 100 μM, 2 hr
Excerpt: Of the PIP3-binding actin-regulating factors, VAV and WAVE family proteins have been identified as important PIP3-interacting proteins regulating actin polymerization, lamellipodia formation, and cell motility in response to growth factor stimulation. Hornstein I et al. (2004) Cell Signal 16:1-11; Oikawa T et al. (2004) Nat Cell Biol 6:420-6. Therefore, the effect of PIT-1 on the cellular localization of GFP fusions of VAV and WAVE proteins was investigated. SUM159 cells transfected with VAV2 or WAVE2 GFP vectors were treated with PIT-1, PIT-2, PIT-1i-1, or PIT-1i-2 (100 μM) for 2 hr. Alternatively, cells were serum starved overnight, treated with these same compounds and then stimulated with PDGF 100 ng/ml for 15 min. Subsequently, actin fibers were stained with TRITC-phalloidin and analyzed using fluorescent microscopy. The numbers of cell ruffles/lamellipodia were counted in five random fields.

PI3K-PDK1-Akt pathway = assay: PIP3-regulated phosphorylation events in U87MG cells; assay type: cell-based, human
Description: The effect of PIT-1 on PIP3-mediated signaling was examined in U87MG glioblastoma cells, which show elevated basal levels of PIP3 due to the loss of PTEN. Pore N et al. (2003) Cancer Res 63:236-41.

SUM159 cells = assay: Cell polarization in wounded monolayers after PDGF; assay type: cell-based, human; conditions: wound healing model, 100 μM
Description: In order to measure cell polarization, wounds were generated in SUM159 cell monolayers, followed by serum starvation and treatment with 100 μM PIT-1, PIT-2, PIT-1i-1, or PIT-1i-2 for 2 hr. Cells were stimulated for 15 min with 100 ng/ml PDGF, fixed and stained with TRITC-phalloidin for F-actin (red), acetylated tubulin antibody (green) for microtubule organization center (MTOC), and Hoechst for nuclei (blue). Cell polarization was evaluated by analysis of the relative location of the MTOC and nucleus. […] The number of polarized cells was counted in five random fields under fluorescent microscope.

human cancer cells = assay: Cancer cell migration, transwell migration and wound closure models; assay type: cell-based; conditions: for cancer cell migration: model not specified
Description: Two models of cell migration were used, a transwell migration model and a wound closure model. Migration of cancer and endothelial cells was evaluated using 24-transwell Boyden chamber (Costar, Bedford, Mass.) with a polystyrene membrane (6.5 mm diameter, 10 μm thickness, and 8 μm pore size). Cells were suspended in serum-free media and seeded in the upper compartment of each well (2×10^4 cells/well) in the presence or absence of different compounds at the indicated concentrations. The lower compartment contained 600 μl of serum-free culture media supplemented with growth factors. After an 8-hr incubation at 37° C., cells were fixed and stained with 0.1% crystal violet. Non-migrating cells on the upper surface of the filter were removed, and the stained cells that migrated to the lower side were photographed using a phase-contrast microscope (Nikon, Japan) in five random fields. The cells were lysed with 10% acetic acid, and colorimetric determination was made at 595 nm using Wallac Victor 3 plate reader.
Cancer or endothelial cells were seeded into fibronectin-coated 96-well plates (2×10^4 cells/well). After reaching confluence, cell monolayers were scratched with a pipette tip to obtain a “wound”. The media and dislodged cells were aspirated and replaced by fresh serum-free media in the presence of growth factors, with or without compounds at different concentrations. After an 8-hr incubation at 37° C., cells were photographed using a phase-contrast microscope in five random fields. The width of wounded cell monolayers in images was measured and the inhibition rates of migration were calculated as inhibition rate=[1−(compound-treated group/control group)]×100%, and IC50 value was determined using Origin6 software (MicroCal, LLC, Northampton, Mass.).

U87MG cells = assay: Combination with Akt kinase inhibitors in U87MG cells (western blot, ATP assay); assay type: cell-based, human; conditions: 100 μM PIT-1 with 10 μM Akt inhibitor
Description: U87MG cells were treated with 100 μM PIT-1, or 10 μM Akt inhibitor VIII (Calbiochem) or Akt inhibitor (Calbiochem), or 100 μM PIT-1 together with 10 μM Akt inhibitor VIII or Akt inhibitor, for 12 hr and then phosphorylation events were evaluated by western blot.

PH123 = PH123 (Homo sapiens (Human), UniProt P31749); assay: Lipid overlay assay of PIP3/PH123 binding
[2] = tested on: AMPK and ACC phosphorylation, LC3-II; assay: Metabolic stress and autophagy markers; assay type: cell-based, human
Excerpt: Changes in cell metabolism have emerged in recent years as an important component of PI3K/PIP3/Akt signaling, contributing to the regulation of cell viability and transformation by the PI3K/Akt pathway. Datta S R et al. (1999) Genes Dev 13:2905-27; Elstrom R L et al. (2004) Cancer Res 64:3892-9. Therefore, the possibility that PIT-1 may cause dysregulation of energy homeostasis and induction of the metabolic stress in cancer cells, which may contribute to the PIT-induced cell death, was investigated. […] Hardie D G (2007) Nat Rev Mol Cell Biol 8:774-85. […] Mathew R et al. (2007) Nat Rev Cancer 7:961-7. […] It is also consistent with the established role of Akt as an inhibitor of autophagy. […] Takeuchi H et al. (2005) Cancer Res 65:3336-46.

Chain of PH123 (P31749 1-123): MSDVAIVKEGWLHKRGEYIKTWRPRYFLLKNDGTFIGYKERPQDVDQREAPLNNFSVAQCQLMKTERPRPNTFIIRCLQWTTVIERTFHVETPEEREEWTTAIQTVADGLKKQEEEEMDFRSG

Structure (SMILES) | lamellipodia formation and membrane translocation of VAV/WAVE proteins [1] | PI3K-PDK1-Akt signaling in U87MG cells (PI3K-PDK1-Akt pathway) | cell polarization and lamellipodia formation induced by PDGF (SUM159 cells) | cancer cell migration (human cancer cells) | combination with Akt kinase inhibitors: Akt activation, downstream phosphorylation, cell survival (U87MG cells) | growth factor-induced transwell migration (human cancer cells; dose-dependent) | inhibitory effect on PIP3/PH123 binding (PH123) | phosphorylation of ACC [2] | phosphorylation of AMPK [2] | expression of autophagic marker LC3-II ([2]; U87MG cells)
COc1c(Cl)cc([N+](=O)[O-])cc1NC(=S)NC(=O)c1ccccc1 [PIT-1i-2] | inactive | failed to inhibit PDK1/Akt signaling | failed to prevent cell polarization | neither PIT-1i-1 nor PIT-1i-2 was active | – | – | – | – | – | –
O=C(NC(=S)Nc1cc([N+](=O)[O-])cc(Cl)c1O)c1ccccc1 [PIT-1] | – | suppressed activity of the PI3K-PDK1-Akt pathway | effective at preventing cell polarization and lamellipodia formation | much stronger than that of Akt kinase inhibitor VIII | acted synergistically | substantially inhibited | concentration-dependent inhibitory effect | Increased phosphorylation | significant increase in the phosphorylation | prominently increased the expression
O=C(NC(=O)c1ccccc1)Nc1cc([N+](=O)[O-])cc(Cl)c1O [PIT-1i-1, reference compound] | inactive | failed to inhibit PDK1/Akt signaling | failed to prevent cell polarization | neither PIT-1i-1 nor PIT-1i-2 was active | – | – | – | – | – | –
